Data as given in US20070261950A1, “IONIZED WATER AND METHOD OF PRODUCING SAME” (priority 2006, published 2007).

How the values were obtained:
RAW264.7 cells [1] = assay: IL-1β production by peptidoglycan-stimulated RAW264.7 cells (ELISA); format: cell-based, mouse; settings: peptidoglycan 5 μg/ml, 24 hours; 25% NIW, 75% DIW; DH-DIW; NaClO 100 ppm
Experimental: Next, the effects of NIW generated from 0.12% NaCl solution or water containing DH (dissolved hydrogen) on proinflammatory cytokine, IL-1β, production by the RAW264.7 cells in vitro was studied. Briefly, mouse RAW264.7 cells in 96-well tissue culture plates were stimulated with 5 μg/ml of peptidoglycan (Staphylococcus aureus origin, from Sigma) in NIW-based complete medium of α-MEM (25% NIW, 75% DIW) or DIW-based α-MEM (100% DIW). Hydrogen was dissolved in DIW for two days (DH-DIW) or NaClO (100 ppm) was additionally added to DIW. All media used in this assay were supplemented with FBS (10%). After 24 hours of incubation, culture supernatants were collected from the 96-well plates and diluted in an equal volume of PBS containing 0.05% Tween 20 detergent (PBST). A commercially available ELISA kit for IL-1β was employed to measure the concentration of IL-1β in the culture supernatants.

RAW264.7 cells [2] = assay: Intracellular ROS induced by LPS in RAW264.7 cells (C400 fluorescence, confocal microscopy); format: cell-based, mouse; settings: 24 hours
Experimental: More specifically, RAW264.7 cells were incubated in 10% FBS containing α-MEM dissolved in a) 0.12% NaCl, b) 0.12% NaCl+85 ppm NaClO, or c) NIW. The cells were incubated in the presence or absence of E. coli LPS (1 μg/ml) for 24 hours. The cells were stained with Fluorescein-derivative ROS reacting reagent, 5-(and 6)-carboxy-2′,7′-dichlorodihydrofluorescein diacetate (#C400, Molecular Probes). The C400 only reacts with ROS and develops fluorescence emission at a wavelength range of 517-527 nm. The staining pattern was analyzed by 0.3 μm sequential optical sectioning at ×400 or ×1000 magnification with a Leica™ TCS/SP-2 laser scan confocal microscope.

## OCl [sodium hypochlorite (NaClO) water, sodium hypochlorite]
RAW264.7 cells [1]
  IL-1β production: augmented the mitogenic activity of the peptidoglycan
RAW264.7 cells [2]; E. coli LPS 1 μg/ml
  LPS-dependent intracellular ROS induction: LPS treatment induced intracellular ROS
RAW264.7 cells [2]; no LPS
  intracellular ROS in the absence of LPS: did not show intracellular ROS
